Laboratory results reported in patent publication US20080182781A1, “Process for the Preparation of Peptides” (priority 2004, published 2008).
pIC50: −log10 of the molar value. Like-named read-outs stand apart in the source and are kept apart here. Where a SMILES comes first, the peptide text is derived from it. Bridges are numbered along the chain shown (N, C = ends). [ ]: non-standard residue; d: D form. hArg = N=C(N)NCCCC[C@H](N)C(=O)O; Mpa = O=C(O)CCS

System: ADP induced platelet aggregation
Assay type: cell-based
Details: human PRP
Protocol: The bioactivity of peptide of formula (1) is checked using platelet aggregation inhibition assay using 4× Laser Aggregometer (EMA). Freshly venous Blood from consented human donors are drawn and collected in citrated buffer. The platelet rich plasma (PRP) and platelet poor plasma are separated by centrifugation. Platelet count in PRP is adjusted to 2-3×10^8 platelets/ml. After adjusting the baseline aggregation with PPP, the PRP was treated with […] ADP and checked the percent total aggregation. The PRP is then first incubated with varying concentrations of reference standard and synthesized peptide of formula (1). ADP is then added to check the inhibition of aggregation. The reproducibility of bioactivity of synthesized peptide of formula 1 is checked several times and compared with reference standards.

SMILES: N=C(N)NCCCC[C@@H]1NC(=O)CCSSC[C@@H](C(N)=O)NC(=O)[C@@H]2CCCN2C(=O)[C@H](Cc2c[nH]c3ccccc23)NC(=O)[C@H](CC(=O)O)NC(=O)CNC1=O [SP of formula 1] ([Mpa][hArg]GDWPC-NH2; disulfide 1-7)
- % Inhibition of ADP induced aggregation (Donor 1, 140 nM): 44.6%
- % Inhibition of ADP induced aggregation (Donor 1, 280 nM): 61.40%
- % Inhibition of ADP induced aggregation (Donor 2, 70 nM): 46.66%
- % Inhibition of ADP induced aggregation (Donor 2, 140 nM): 51.16%
- % Inhibition of ADP induced aggregation (Donor 2, 280 nM): 67.74%
- % Inhibition of ADP induced aggregation (Donor 3, 70 nM): 57.42%
- % Inhibition of ADP induced aggregation (Donor 3, 140 nM): 60.28%
- % Inhibition of ADP induced aggregation (Donor 4, 140 nM): 20.52%
- % Inhibition of ADP induced aggregation (Donor 4, 280 nM): 42.73%
- % Inhibition of ADP induced aggregation (Donor 5, 70 nM): 52.63%
- % Inhibition of ADP induced aggregation (Donor 5, 140 nM): 87.21%
- % Inhibition of ADP induced aggregation (Donor 6, 140 nM): 82.92%
- pIC50 (12 experiments, read-out: IC50 dose, inhibition of ADP induced platelet aggregation): > 6.85
- inhibition of ADP induced platelet aggregation (seen in most of the samples): more than 50%
